From patent publication US20240246937A1 (MERCK SHARP & DOHME LLC, priority 2021, published 2024)

Target: recombinant IL4I1 (Homo sapiens (Human), UniProt Q96RQ9)
Assay: IL4I1 Enzymatic Assay (Amplex Red/HRP coupled fluorescence detection of H2O2)
Type: biochemical
Details: 240 min; recombinant IL4I1, four-hour pre-incubation with compound
Summary of the method: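 Recombinant human IL4I1 (1 nM final) pre-incubated 4 h with compound at ambient temperature in 50 mM Hepes pH 7.0, 0.005% Tween20. Started with 1 mM each Phe/Tyr/Trp plus Amplex Red/HRP; H2O2-derived resorufin fluorescence read after 120 min; EC50 from ten-point 1:3 titration, four-parameter fit.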

Sequence of recombinant IL4I1 (Q96RQ9 22-567): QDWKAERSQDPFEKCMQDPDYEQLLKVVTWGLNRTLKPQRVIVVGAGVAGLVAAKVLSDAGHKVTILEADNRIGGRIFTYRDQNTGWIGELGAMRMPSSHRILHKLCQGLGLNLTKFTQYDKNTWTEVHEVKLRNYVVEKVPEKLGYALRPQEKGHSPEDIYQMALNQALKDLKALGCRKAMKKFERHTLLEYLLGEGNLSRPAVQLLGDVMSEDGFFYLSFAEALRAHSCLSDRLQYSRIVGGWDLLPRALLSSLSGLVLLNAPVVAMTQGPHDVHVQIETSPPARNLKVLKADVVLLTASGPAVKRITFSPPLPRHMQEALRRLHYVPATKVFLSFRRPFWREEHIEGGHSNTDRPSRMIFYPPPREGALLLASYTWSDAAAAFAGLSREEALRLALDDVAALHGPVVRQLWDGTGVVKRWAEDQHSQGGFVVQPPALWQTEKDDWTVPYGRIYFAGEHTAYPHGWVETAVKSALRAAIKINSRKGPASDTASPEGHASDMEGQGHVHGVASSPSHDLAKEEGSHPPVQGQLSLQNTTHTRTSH

| SMILES | EC50 [nM] |
| --- | --- |
| O=C1C(=O)N(C2CCCC2)CCN1Cc1nnc(N2CC3CC3C2)s1 (stereo not drawn) [Example 313, 1-((5-(3-azabicyclo[3.1.0]hexan-3-yl)-1,3,4-thiadiazol-2-yl)methyl)-4-cyclopentylpiperazine-2,3-dione] | 47 |
| O=C1C(=O)N(C2CCCC2)CCN1Cc1ccc(-c2ccccc2)cn1 [Example 98, 1-cyclopentyl-4-((5-phenylpyridin-2-yl)methyl)piperazine-2,3-dione] | 12 |
| O=C1C(=O)N(C2CCCC2)CCN1Cc1ccc(N2CCC(F)(F)C2)nn1 [Example 319, 1-cyclopentyl-4-((6-(3,3-difluoropyrrolidin-1-yl)pyridazin-3-yl)methyl)piperazine-2,3-dione] | 30 |
| O=C1C(=O)N(C23CC(C2)C3)CCN1Cc1ccc(-n2ccnn2)nn1 [Example 402, 1-((6-(1H-1,2,3-triazol-1-yl)pyridazin-3-yl)methyl)-4-(bicyclo[1.1.1]pentan-1-yl)piperazine-2,3-dione] | 36 |
| O=C1C(=O)N2CCCCC2CN1Cc1nnc(-c2ccccc2)s1 (single isomer, unassigned) [Example 182, (R or S)-2-((5-phenyl-1,3,4-thiadiazol-2-yl)methyl)hexahydro-2H-pyrido[1,2-a]pyrazine-3,4-dione] | 14 |
| COc1ccc(C2(N3CCN(Cc4nnc(-c5ccccc5)s4)C(=O)C3=O)CC2)nc1 [Example 297, 1-(1-(5-methoxypyridin-2-yl)cyclopropyl)-4-((5-phenyl-1,3,4-thiadiazol-2-yl)methyl)piperazine-2,3-dione] | 83 |
| N#CC1(n2ccn(Cc3ccc(-c4cccnc4)nn3)c(=O)c2=O)CC1 [Example 89, 1-(2,3-dioxo-4-((6-(pyridin-3-yl)pyridazin-3-yl)methyl)-3,4-dihydropyrazin-1(2H)-yl)cyclopropane-1-carbonitrile] | 32 |
| O=c1c(=O)n(C2CCC2)ccn1Cc1nnc(-c2ccc(F)cc2)s1 [Example 30, 1-cyclobutyl-4-((5-(4-fluorophenyl)-1,3,4-thiadiazol-2-yl)methyl)-1,4-dihydropyrazine-2,3-dione] | 8 |
| O=c1c(=O)n(C2(CF)CC2)ccn1Cc1cc(-c2cccnc2)no1 [Example 246, 1-(1-(fluoromethyl)cyclopropyl)-4-((3-(pyridin-3-yl)isoxazol-5-yl)methyl)-1,4-dihydropyrazine-2,3-dione] | 37 |
| O=C1C(=O)N(C23CC(F)(C2)C3)CCN1Cc1ccc(-c2nccs2)nn1 [Example 234, 1-(3-fluorobicyclo[1.1.1]pentan-1-yl)-4-((6-(thiazol-2-yl)pyridazin-3-yl)methyl)piperazine-2,3-dione] | 40 |
| O=C1NCCc2ccc(CN3CCN(C4CCCC4)C(=O)C3=O)cc21 [Example 275, 1-cyclopentyl-4-((1-oxo-1,2,3,4-tetrahydroisoquinolin-7-yl)methyl)piperazine-2,3-dione] | 20 |
| O=C1C(=O)N(C2CCC2)CCN1Cc1cc(-c2ccccc2F)no1 [Example 149, 1-cyclobutyl-4-((3-(2-fluorophenyl)isoxazol-5-yl)methyl)piperazine-2,3-dione] | 3 |
| O=C1C(=O)N(C2CCC2)CCN1Cc1ncc(-c2ccccc2)cn1 [Example 277, 1-cyclobutyl-4-((5-phenylpyrimidin-2-yl)methyl)piperazine-2,3-dione] | 24 |
| N#CC1(n2ccn(Cc3ccc(-n4ccnn4)nn3)c(=O)c2=O)CC1 [Example 335, 1-(4-((6-(1H-1,2,3-triazol-1-yl)pyridazin-3-yl)methyl)-2,3-dioxo-3,4-dihydropyrazin-1(2H)-yl)cyclopropane-1-carbonitrile] | 90 |
| O=c1c(=O)n(C23CC(C2)C3)ccn1Cc1cc(-c2cccnc2)no1 [Example 223, 1-(bicyclo[1.1.1]pentan-1-yl)-4-((3-(pyridin-3-yl)isoxazol-5-yl)methyl)-1,4-dihydropyrazine-2,3-dione] | 10 |
